Measurements reported in patent US20230357168A1, “CARBOBICYCLIC NUCLEOSIDES FOR TREATMENT OF VIRAL INFECTION” (The Chinese University of Hong Kong, priority 2022, published 2023).

System: SARS-CoV-2 viral strains (including the original Wuhan strain and Delta and Omicron variants)
Test: Replication of SARS-CoV-2 viral strains in A549-ACE2 cell model (FIG. 2)
Format: cell-based
Details: done in triplicate

## O=c1[nH]/c(=N\O)ccn1[C@@H]1C2=CCC[C@@H](O)[C@@H]2[C@@H](O)[C@H]1O [Compound 48, 4-(hydroxyimino)-1-((1R,2S,3R,3aR,4R)-2,3,4-trihydroxy-2,3,3a,4,5,6-hexahydro-1H-inden-1-yl)-3,4-dihydropyrimidin-2(1H)-one]
  replication of different SARS-CoV-2 viral strains: inhibits the replication
